Values quoted from earlier work as cited in patent publication US20090047276A1, “METHODS FOR […] OR TISSUE RE[…] A […]” (UNIVERSITY OF WASHINGTON, priority 2007, published 2009).

What was measured:
GSK-3 [1] = settings: literature values (Ring et al. 2003; Cline et al. 2002)
GSK-3 [2] = settings: literature values (Ring et al. 2003; Cline et al. 2002); read-out: half-maximal effective concentration [EC50]

SMILES	selectivity for GSK-3 (GSK-3 [1])	EC50 (GSK-3 [2]) [µM]
O=[N+]([O-])c1ccc(NCCNc2ncc(-c3ncc[nH]3)c(-c3ccc(Cl)cc3Cl)n2)nc1 [CHIR-837]	> 5,000 fold	0.375
